In one assay the test system is MCF-7 (ER + breast). In words: Colorimetric cell proliferation assay in MCF-7. Conditions: 72-h incubations performed in triplicate. Format: cell-based.
The test system of assay [1] is MDA-MB-231 (triple-negative breast). Description: Colorimetric cell proliferation assay in MDA-MB-231. Format: cell-based. Conditions: 72-h incubations performed in triplicate.
For the next assay, the system named is OVCAR-3 (ovarian). In words: Colorimetric cell proliferation assay in OVCAR-3. As to conditions: 72-h incubations performed in triplicate. The assay is classed as cell-based.
A further assay concerns PANC-1 (pancreatic). Description: Colorimetric cell proliferation assay in PANC-1. As to conditions: 72-h incubations performed in triplicate. The assay is classed as cell-based.
Another assay has as its system NCI-H460. Description: Cytotoxicity (cell proliferation) assay in NCI-H460. Format: cell-based, human. How it is done:
Cytotoxicity Assay. Cytotoxicity studies were carried out according to a standard protocol (Guddneppanavar et al. 2006) using the Celltiter 96 Aqueous Non-Radioactive Cell Proliferation Assay kit (Promega, Madison, Wis.). Stock solutions of 11, 14a, and 14b were prepared in phosphate-buffered saline (PBS) and serially diluted with media prior to incubation with cancer cells. IC50 values were calculated from non-linear curve fits using a sigmoidal dose-response equation in GraphPad Prism (GraphPad Software, La Jolla, Calif.). […]
Cell Proliferation Assay. Cell viability was assessed using the CellTiter 96 Aqueous Non-Radioactive Cell Proliferation Assay (Promega, Madison. Wis., USA) as described previously. […] The absorbance of tetrazolium dye was measured at 490) nm using a plate reader. The fraction of viable cells was calculated as a percentage of untreated control and is reported as the mean±standard deviation for 3 incubations of each compound. IC50 values were calculated from non-linear curve fits using a sigmoidal dose-response equation in GraphPad Prism (GraphPad Software, La Jolla, Calif.) and are averages of two individual experiments performed in triplicate. […]

We go through 1 compound from US9090640B2, “Targeted delivery and prodrug designs for platinum-acridine anti-cancer compounds and methods thereof” (priority 2011, dated 2015).

In the case of `N.N.[Cl][Pt][Cl]` [cispiatin, cis-diamminedichloroplatinum], the IC50 with MCF-7 (ER + breast) stood at 12 ± 2 µM; in assay [1], 60 ± 7 µM; with OVCAR-3 (ovarian), 3.3 ± 0.4 µM; with PANC-1 (pancreatic) it was 6.6 ± 0.7 µM; in the assay on NCI-H460 (72-h incubations performed in triplicate (Table II), read-out: IC50, NCI-H460 (NSCLC)), 1.2 ± 0.2 µM. The “Fold less potent than the compounds of the invention in H460 cells” value with NCI-H460 (compared with 14a and 14b) is given as “at least 20 fold”.

For orientation: IC50 means the concentration needed to halve the response being measured.
